Source: patent US10882856B2 (BeiGene, Ltd., priority 2017, dated 2021)

Experiments:
[1] = target: T1, IDO1 (Homo sapiens, UniProt P14902); experiment: Hela cell-based IDO1 assay; conditions: Hela cells
Summary of the method: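 HeLa cells were seeded at 8000 per well in 96-well plates in phenol red-free DMEM with 10% FBS. After 4 hours, DMSO-diluted compound dilutions were added with IFN-γ (final 100 ng/mL) and 0.4 mM L-Trp, and cells were kept 48 hours at 37 °C, 5% CO2. Supernatant was deproteinised with trichloroacetic acid, and kynurenine was measured at 480 nm after adding 2% 4-(dimethylamino)benzaldehyde. Potency came from four-parameter logistic fits in XLfit.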

[2] = target: T2, cellular TDO2 in HEK293-TDO2 cells (Homo sapiens, UniProt P48775); experiment: 293-TDO2 cell-based assay (Kyn colorimetric); conditions: 48 hours of incubation
T2 construct: expressed in transfected cells; host or cells: HEK293 (ATCC), stably transfected
T2 sequence (P48775 whole entry): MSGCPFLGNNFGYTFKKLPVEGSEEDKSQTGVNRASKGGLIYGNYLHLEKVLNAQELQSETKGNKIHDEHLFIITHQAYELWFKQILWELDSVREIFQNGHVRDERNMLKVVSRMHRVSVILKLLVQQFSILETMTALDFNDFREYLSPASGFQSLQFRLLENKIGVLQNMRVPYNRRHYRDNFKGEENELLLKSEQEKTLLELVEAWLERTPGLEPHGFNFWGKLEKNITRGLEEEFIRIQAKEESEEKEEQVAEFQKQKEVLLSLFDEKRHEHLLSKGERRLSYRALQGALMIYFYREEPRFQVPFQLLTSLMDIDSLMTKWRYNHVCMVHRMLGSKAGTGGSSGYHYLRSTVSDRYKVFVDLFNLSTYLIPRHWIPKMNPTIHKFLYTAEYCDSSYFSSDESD
Protocol: The inhibitory activity of TDO2 inhibitors is determined by using a colorimetric reaction to measure Kyn generated from L-Trp (L-Tryptophon) oxidation by cellular TDO2 in HEK293-TDO2 cells stably transfected with a plasmid expression of Tryptophan 2,3-dioxygenase (for short, 293-TDO2).
HEK293 cells were obtained from the American Type Culture Collection and 293-TDO2 were recovered in 10% FBS-containing phenol red-free DMEM medium. Cells were plated onto a 96-well plate (100 μl/well) at 10000 cells per well and kept at 37° C. in a humidified incubator supplied with 5% CO2. 4 hours later, Compounds at different concentrations diluted in dimethylsulfoxide (DMSO) were added to plate. Cells were kept at 37° C. in a humidified incubator supplied with 5% CO2. After 48 hours of incubation, 100 μl supernatant from each well was removed to a new plate. The protein in the medium was precipitated with the addition of 8 μl 6N trichloroacetic acid. The plate was incubated at 60° C. for 30 minutes and then centrifugation at 2500 rpm for 10 minutes to remove sediments. 80 μl supernatants were carefully removed to a new clean plate and added with an equal volume of 2% 4-(Dimethylamino) benzaldehyde (D2004, sigma) dissolved in glacial acetic acid. The absorbance at 480 nm wavelength derived from Kyn was measured using a PHERAstar FS plate reader (BMG LABTECH). The IC50 for each compound was derived from fitting the dose-response data to the four-parameter logistic model by using XLfit software (IDBS).

[3] = target: T1, IDO1; experiment: IDO1 enzymatic assay; format: biochemical; design: His tag (N); made in house; host or cells: E. coli; conditions: read-out: Enzyme IC50 IDO1
Summary of the method: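 IC50 values reflect remaining IDO1 activity over increasing compound concentrations. The enzyme (50 nM, N-terminally His-tagged, purified from E. coli) was incubated for 1.5 hours at 24 °C with compound, 1.3 mM D-tryptophan, 5 mM L-ascorbic acid, methylene blue and 0.4 mg/mL catalase in 50 mM potassium phosphate pH 7.5 with 0.1% BSA. The slope of N'-formylkynurenine formation, read continuously at 321 nm for 1 hour, served as activity.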

T1 sequence (P14902 whole entry): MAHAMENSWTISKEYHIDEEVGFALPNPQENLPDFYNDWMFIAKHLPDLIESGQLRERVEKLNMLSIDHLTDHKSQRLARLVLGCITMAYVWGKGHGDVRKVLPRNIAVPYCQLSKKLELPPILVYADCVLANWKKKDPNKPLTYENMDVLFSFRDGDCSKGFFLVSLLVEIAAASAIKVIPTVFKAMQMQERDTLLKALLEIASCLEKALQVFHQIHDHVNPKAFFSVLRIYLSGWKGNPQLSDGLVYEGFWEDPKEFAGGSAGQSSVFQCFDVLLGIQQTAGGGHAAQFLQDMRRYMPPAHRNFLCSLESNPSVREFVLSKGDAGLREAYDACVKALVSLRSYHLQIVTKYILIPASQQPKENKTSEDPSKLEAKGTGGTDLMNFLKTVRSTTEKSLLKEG

| EC50 [1] [µM] | EC50 [2] [µM] | IC50 [3] [µM] | SMILES |
| --- | --- | --- | --- |
| 0.021 | > 10 | 0.023 | OC(c1c(C2CC2)ccc2cncn12)C1CCC(c2cccc3ncccc23)CC1 (stereo not drawn) [Example D141, (6-cyclopropylimidazo[1,5-a]pyridin-5-yl)(4-(quinolin-5-yl)cyclohexyl)methanol] |
| 0.044 | > 10 | 0.033 | OC(c1c(C2CC2)ccc2cncn12)C1CCC(c2ccc(F)cc2)CC1 (stereo not drawn) [Example D104, (6-cyclopropylimidazo[1,5-a]pyridin-5-yl)(4-(4-fluorophenyl)cyclohexyl)methanol] |
| 6.75 | > 10 | 5.2 | O[C@@H](c1c(C2CC2)ccc2cncn12)[C@H]1CC[C@H](c2cccc3ccccc32)CC1 (single isomer, unassigned) [Example D135b] |
| 4.31 | > 10 | 3.7 | O[C@@H](c1c(C2CC2)ccc2cncn12)[C@H]1CC[C@H](c2ccc(Oc3ccccc3)cc2)CC1 (single isomer, unassigned) [Example D120b] |
| > 10 | > 10 | 1.4 | O[C@@H](c1cc(Cl)cc2cncn12)[C@H]1CC[C@H](c2cccc3ccccc32)CC1 (single isomer, unassigned) [Example E103b] |
| 0.163 | > 10 | 0.038 | OC(c1c(C2CC2)ccc2cncn12)C1CCC(c2ccc(Cl)cc2)CC1 (stereo not drawn) [Example D103, (4-(4-chlorophenyl)cyclohexyl)(6-cyclopropylimidazo[1,5-a]pyridin-5-yl)methanol] |
| 0.125 | > 10 | 0.094 | OC(c1c(C2CC2)ccn2cncc12)C1CCC(c2cccc3ccccc23)CC1 (stereo not drawn) [Example C121, (7-cyclopropylimidazo[1,5-a]pyridin-8-yl)(4-(naphthalen-1-yl)cyclohexyl)methanol] |
| 0.099 | > 10 | > 10 | O[C@@H](c1c(C2CC2)ccc2cncn12)[C@H]1CC[C@H](c2ccccc2Cl)CC1 (single isomer, unassigned) [Example D117b] |
| 0.546 | > 10 | 0.044 | OC(c1c(C2CC2)ccc2cncn12)C1CCC(c2ccc(Br)cc2)CC1 (stereo not drawn) [Example D118, (4-(4-bromophenyl)cyclohexyl)(6-cyclopropylimidazo[1,5-a]pyridin-5-yl)methanol] |
| 1.75 | > 10 | 1.8 | O[C@@H](c1c(C2CC2)ccc2cncn12)[C@H]1CC[C@H](c2ccnc3ccccc32)CC1 (single isomer, unassigned) [Example D140b] |
| 0.492 | > 10 | 0.03 | O[C@H](c1c(C2CC2)ccc2cncn12)[C@H]1CC[C@H](c2ccccc2Cl)CC1 (single isomer, unassigned) [Example D117a] |

The next lines start with the molecule.

| SMILES | EC50 [1] [µM] | EC50 [2] [µM] | IC50 [3] [µM] |
| --- | --- | --- | --- |
| CC(C)c1ccc2cncn2c1[C@H](O)[C@H]1CC[C@H](c2ccc(Cl)cc2)CC1 (single isomer, unassigned) [Example D115b] | 5.68 | > 10 | 4.3 |
| OC(c1c(C2CC2)ccc2cncn12)C1CCC(c2cc(F)cc(F)c2)CC1 (stereo not drawn) [Example D144, (6-cyclopropylimidazo[1,5-a]pyridin-5-yl)(4-(3,5-difluorophenyl)cyclohexyl)methanol] | 0.096 | > 10 | 0.042 |
| OC(c1c(C2CC2)ccn2cncc12)C1CCC(c2ccc3ccccc3c2)CC1 (stereo not drawn) [Example C122, (7-cyclopropylimidazo[1,5-a]pyridin-8-yl)(4-(naphthalen-2-yl)cyclohexyl)methanol] | 0.382 | > 10 | 0.074 |
| OC(c1c(C2CC2)ccc2cncn12)C1CCC(c2ccc(F)c(Cl)c2)CC1 (stereo not drawn) [Example D129, (4-(3-chloro-4-fluorophenyl)cyclohexyl)(6-cyclopropylimidazo[1,5-a]pyridin-5-yl)methanol] | 0.148 | > 10 | 0.053 |
| OC(c1c(C2CC2)ccc2cncn12)C1CCC(c2cc(F)c(F)cc2F)CC1 (stereo not drawn) [Example D149, (6-cyclopropylimidazo[1,5-a]pyridin-5-yl)(4-(2,4,5-trifluorophenyl)cyclohexyl)methanol] | 0.492 | > 10 | 0.026 |
| OC(c1c(C2CC2)ccn2cncc12)C1CCN(c2ccccc2)CC1 (single isomer, unassigned) [Example C136b] | > 10 | > 10 | 5.4 |
| Cn1cc(-c2ccc(N3CCC(C(O)c4c(C5CC5)ccc5cncn45)CC3)cc2)cn1 (stereo not drawn) [Example D176, (6-cyclopropylimidazo[1,5-a]pyridin-5-yl)(1-(4-(1-methyl-1H-pyrazol-4-yl)phenyl)piperidin-4-yl)methanol] | 0.109 | > 10 | 0.025 |
| OC(c1c(C2CC2)ccc2cncn12)[C@H]1CC[C@H](c2ccc(C(F)(F)F)nc2)CC1 (single isomer, unassigned) [Example D107a] | 1.26 | > 10 | 0.036 |
| CC(=O)Nc1ccc([C@H]2CC[C@H]([C@H](O)c3c(C4CC4)ccc4cncn34)CC2)cc1 [Example D159, N-(4-((1S,4r)-4-((S)-(6-cyclopropylimidazo[1,5-a]pyridin-5-yl)hydroxy)methylcyclohexyl)phenyl)acetamide] | 0.08 | > 10 | 0.012 |
| OC(c1c(C2CC2)ccn2cncc12)C1CCN(c2ccccn2)CC1 (stereo not drawn) [Example C146, (7-cyclopropylimidazo[1,5-a]pyridin-8-yl)(1-(pyridin-2-yl)piperidin-4-yl)methanol] | 2.23 | > 10 | 0.047 |
| NC(=O)c1ccc([C@H]2CC[C@H]([C@H](O)c3c(C4CC4)ccc4cncn34)CC2)cc1 [Example D153, 4-((1S,4r)-4-(S)-(6-cyclopropylimidazo[1,5-a]pyridin-5-yl(hydroxy)methyl)cyclohexyl)benzamide] | 0.145 | > 10 | 0.011 |
| OC(c1cc(C2CC2)cc2cncn12)C1CCC(c2ccc(Cl)cc2)CC1 (stereo not drawn) [Example E102, (4-(4-chlorophenyl)cyclohexyl)(7-cyclopropylimidazo[1,5-a]pyridin-5-yl)methanol] | 4.84 | > 10 | 0.27 |
| COc1ccc([C@H]2CC[C@H](C(O)c3c(C4CC4)ccc4cncn34)CC2)c(F)c1 (single isomer, unassigned) [Example D146b] | 4.57 | > 10 | 2.9 |
| CC(C)c1ccc2cncn2c1C(O)C1CCC(c2cccc(F)c2)CC1 (stereo not drawn) [Example D167, (4-(3-fluorophenyl)cyclohexyl)(6-isopropylimidazo[1,5-a]pyridin-5-yl)methanol] | 0.04 | > 10 | 0.069 |
| O[C@@H](c1c(C2CC2)ccn2cncc12)[C@H]1CC[C@H](c2ccc(C(F)(F)F)nc2)CC1 (single isomer, unassigned) [Example C120b] | > 10 | > 10 | 4.8 |
| CNC(=O)c1ccc([C@H]2CC[C@H]([C@H](O)c3c(C4CC4)ccc4cncn34)CC2)cc1 (single isomer, unassigned) [Example D124a] | 0.138 | > 10 | 0.019 |
| OC(c1c(C2CC2)ccn2cncc12)C1CCC(c2ccc(OC(F)(F)F)cc2)CC1 (racemic) [Example C105] | 2.01 | > 10 | 0.21 |
| O[C@@H](c1c(C2CC2)ccn2cncc12)[C@H]1CC[C@H](c2ccc(OC3COC3)cc2)CC1 (single isomer, unassigned) [Example C117b] | > 10 | > 10 | 1.1 |
| OC(c1c(C2CC2)ccn2cncc12)C1CCC(c2ccc(OC3CCCC3)cc2)CC1 (stereo not drawn) [Example C118, (4-(4-(cyclopentyloxy)phenyl)cyclohexyl)(7-cyclopropylimidazo[1,5-a]pyridin-8-yl)methanol] | 0.259 | > 10 | 0.12 |
| O[C@@H](c1c(C2CC2)ccn2cncc12)[C@H]1CC[C@H](c2ccc(F)c(Cl)c2)CC1 (single isomer, unassigned) [Example C132b] | > 10 | > 10 | 2.5 |
